We go through five molecules from patent US7179479B1, “Mosquito repellent isolated from Foeniculum vulgare fruit” (Naturobiotech Co., Ltd., priority 2000, dated 2007).

The test system of data set [1] is Aedes aegypti. Description: Skin test of mosquito repellency (bites on treated skin). Type of data set: in vivo. On the procedure: In order to exactly confirm mosquito repellent activity, the compounds containing repellent activity were further examined by a skin test directly against skin. The cage was covered with a 35×35×35 cm mail net structure. Tests were conducted against nulliparous females 7–10 days old. Both compounds, in 100 μl of ethanol, were applied to a rubber glove surface with a 50 mm diameter hole punched on the hand. After drying in the air for 1 minute, skin was exposed for 5 minutes in a cage containing 60 mosquitoes. Repellent activity was measured by the number of mosquitoes biting the skin. The control treated only with 95% ethanol was also exposed to mosquitoes in the same manner. The degree of repellency was expressed in terms of percent repellency calculated according to the following Equation 2. [formula]

The conditions of data set [2]: skin treated with 300 ug/cm^2 DEET, cited from earlier work.
Data set [3] has as its system Aedes aegypti. Description: Patch test of mosquito repellency (landings on treated gauze). Type of data set: in vivo. Conditions: for Mosquito repellency of chromatography fractions (active / inert): patch test of Test 1, fractions of the hexane portion. The text has this: Aedes aegypti were used in the tests of mosquito repellency in the experiments of the present invention. They were provided from the National Institute of Health in Korea and were selected from indoor breeding insects that were not exposed to insecticides or other drugs. Larvae were reared in 30×35×10 cm cages. […] The pupae were transferred to a paper-cup using a spoide and then the paper-cup was moved to a cage being a structure (35×35×35 cm) made from wire. […] For patch test, 35×35×35 cm screen wire cage were used. Tests were conducted on nulliparous females 7-10 days old. The methanol extract and 4 types of portions prepared in the Example 1 and 100 μl of ethanol were applied to a piece of gauze (50 mm-diameter). After drying in the air for 2 minutes, the gauze was put on a rubber glove with a 50 mm-diameter hole punched in it and it was exposed in a cage (35×35×35 cm containing 60 mosquitoes). Because the gauze on the rubber glove was 5 mm away from the skin, mosquitoes would probe through the gauze in an attempt to feed but could not reach the back of the hand. Repellent activity was measured by the number of mosquitoes landing on the gauze for 5 minutes. An untreated gauze (95% ethanol only) was also exposed to mosquitoes in the same manner and considered as a control. The degree of repellency was expressed in terms of percent repellency calculated according to the following equation. [formula] Also, in order to identify mosquito repelling activity, it was compared with synthetic repellent DEET by recording the number of landings.

For data set [4], the system named is rat. Conditions: epidermal; cited from earlier work.
Data set [5] has as its system rat. Conditions: oral administration; cited from earlier work.
Where [6] appears, read: patch test, dose 0.004 mg/cm^2 (so in the source).

Several values for one entry are separate records, joined by “and”; a condition that tells them apart may be missing. Equal entries are not always repeated. Where two headings read alike, the source gives them in different places. Bounds are passed on as bounds.

In the case of `CCN(CC)C(=O)c1cccc(C)c1` [DEET, N,N-diethyl-m-toluamide, reference compound], the “Repellency (average ± standard deviation, %)” value was 98.4 ± 0.5b % in data set [1] (dose 0.04 mg/cm^2); 100a % in data set [1] (dose 0.1 mg/cm^2); 100a % in data set [1] (dose 0.2 mg/cm^2); 100a % in data set [1] (dose 0.4 mg/cm^2); 100a % in data set [3] (setting [6]); 84.6% and 84.6 ± 1.3c % in data set [3] (patch test, dose 0.005 mg/cm^2). Also, the “Repellency (average ± standard deviation, %)” value is 96.4 ± 0.5b % in data set [3] (patch test, dose 0.01 mg/cm^2) and 100a % in data set [3] (patch test, dose 0.02 mg/cm^2). The skin penetration ratio in data set [2] (after 1 hour) is 30%; in data set [2] (after 12 hours), 36%. Further, in data set [3] (patch test, dose 0.1 mg/cm^2, A. aegypti females, 5 min exposure), the “Repellency (%)” value is recorded as over 80%.
Take `CCCCCCCC/C=C/CCCCCCCC(=O)O` [E-9-octadecenoic acid]: the “Repellency (average ± standard deviation, %)” value in data set [1] (dose 0.2 mg/cm^2) was 52.3 ± 0.9%; in data set [1] (dose 0.4 mg/cm^2), 80.4% and 80.4 ± 0.2%; in data set [3] (setting [6]) it was 100a %; in data set [3] (patch test, dose 0.005 mg/cm^2), 73.4% and 73.4 ± 2.3c %; in data set [3] (patch test, dose 0.02 mg/cm^2), 98.6 ± 0.9a %. For the same molecule, the “Mosquito repellency of chromatography fractions (active / inert)” value in data set [3] is “potent active principles”.
For the molecule `CC1(C)C(=O)[C@@]2(C)CC[C@@H]1C2` [Fenchone, (+)-fenchone], the “Repellency (average ± standard deviation, %)” value is 76.2 ± 0.2c % in data set [1] (dose 0.04 mg/cm^2); 91.7 ± 0.9b % in data set [1] (dose 0.1 mg/cm^2); 100a % in data set [1] (dose 0.2 mg/cm^2); 100a % in data set [1] (dose 0.4 mg/cm^2); “perfect repellent activity” in data set [1] (dose 0.4 mg/cm^2, listed as fenchone); 100a % in data set [3] (setting [6]). Further, the “Repellency (average ± standard deviation, %)” value was 82.1 ± 0.7c % in data set [3] (patch test, dose 0.005 mg/cm^2); 82.1% in data set [3] (patch test, dose 0.005 mg/cm^2, listed as fenchone); 93.9 ± 0.6b % in data set [3] (patch test, dose 0.01 mg/cm^2); “potent repellency comparable with that of DEET” in data set [3] (patch test, dose 0.01 mg/cm^2, listed as fenchone); 100a % in data set [3] (patch test, dose 0.02 mg/cm^2).
Regarding `CC1CCC(C(C)(C)O)C(O)C1` (stereo not shown) [PMD, p-menthan-3,8-diol], the LD50 is > 2,000 mg/kg in data set [4] and 2,408 mg/kg in data set [5].
For the molecule (+)-fenchone, in data set [3], the “Mosquito repellency of chromatography fractions (active / inert)” value is on record as “potent active principles”.
